Reference: the NIST ThermoML archive (doi:10.1021/je600519p)

Experiment: xn = mol fraction of the nth substance listed
Conditions: 101 kPa, Liquid

CCOC(=O)OCC [diethyl carbonate] + CCCCCCO
Conditions	mass density [kg/m3]	speed of sound [m/s]	viscosity [mPa·s]
293.15 K, x1 = 0.0502	825.96	1301	4.731
293.15 K, x1 = 0.1123	834.86	1291	4.164
293.15 K, x1 = 0.1499	840.29	1285	3.715
293.15 K, x1 = 0.2103	849.1	1275	3.178
293.15 K, x1 = 0.2508	855.05	1268	2.837
293.15 K, x1 = 0.3121	864.19	1259	2.382
293.15 K, x1 = 0.3576	871.02	1252	2.078
293.15 K, x1 = 0.4113	879.15	1245	1.757
293.15 K, x1 = 0.4632	887.08	1239	1.488
293.15 K, x1 = 0.5111	894.51	1234	1.247
293.15 K, x1 = 0.552	900.88	1230	1.115
293.15 K, x1 = 0.6008	908.59	1226	0.956
293.15 K, x1 = 0.6498	916.39	1222	0.863
293.15 K, x1 = 0.7108	926.19	1219	0.859
293.15 K, x1 = 0.7554	933.45	1216	0.84
293.15 K, x1 = 0.8112	942.65	1213	0.831
293.15 K, x1 = 0.8501	949.13	1211	0.825
293.15 K, x1 = 0.9002	957.5	1208	0.818
293.15 K, x1 = 0.9555	966.89	1206	0.803
303.15 K, x1 = 0.0502	818.55	1267	3.486
303.15 K, x1 = 0.1123	827.16	1256	3.03
303.15 K, x1 = 0.1499	832.48	1249	2.796
303.15 K, x1 = 0.2103	841.04	1240	2.403
303.15 K, x1 = 0.2508	846.79	1234	2.165
303.15 K, x1 = 0.3121	855.69	1225	1.859
303.15 K, x1 = 0.3576	862.23	1217	1.621
303.15 K, x1 = 0.4113	870.21	1210	1.414
303.15 K, x1 = 0.4632	877.88	1204	1.22
303.15 K, x1 = 0.5111	885.13	1200	1.063
303.15 K, x1 = 0.552	891.35	1197	0.951
303.15 K, x1 = 0.6008	898.87	1194	0.844
303.15 K, x1 = 0.6498	906.42	1193	0.811
303.15 K, x1 = 0.7108	915.93	1192	0.804
303.15 K, x1 = 0.7554	923.08	1191	0.774
303.15 K, x1 = 0.8112	932.03	1190	0.748
303.15 K, x1 = 0.8501	938.29	1189	0.73
303.15 K, x1 = 0.9002	946.57	1188	0.724
303.15 K, x1 = 0.9555	955.77	1187	0.713
313.15 K, x1 = 0.0502	811.04	1252	2.621
313.15 K, x1 = 0.1123	819.37	1236	2.339
313.15 K, x1 = 0.1499	824.54	1224	2.115
313.15 K, x1 = 0.2103	832.78	1211	1.856
313.15 K, x1 = 0.2508	838.35	1203	1.687
313.15 K, x1 = 0.3121	846.97	1192	1.466
313.15 K, x1 = 0.3576	853.42	1185	1.319
313.15 K, x1 = 0.4113	861.12	1177	1.16
313.15 K, x1 = 0.4632	868.59	1170	1.031
313.15 K, x1 = 0.5111	875.61	1165	0.912
313.15 K, x1 = 0.552	881.55	1162	0.826
313.15 K, x1 = 0.6008	888.91	1158	0.744
313.15 K, x1 = 0.6498	896.35	1155	0.689
313.15 K, x1 = 0.7108	905.65	1153	0.61
313.15 K, x1 = 0.7554	912.55	1152	0.607
313.15 K, x1 = 0.8112	921.16	1151	0.602
313.15 K, x1 = 0.8501	927.49	1150	0.606
313.15 K, x1 = 0.9002	935.57	1148	0.61
313.15 K, x1 = 0.9555	944.49	1146	0.615
323.15 K, x1 = 0.0502	803.29	1204	2.06
323.15 K, x1 = 0.1123	811.3	1184	1.825
323.15 K, x1 = 0.1499	816.2	1172	1.689
323.15 K, x1 = 0.2103	824.2	1160	1.488
323.15 K, x1 = 0.2508	829.57	1153	1.367
323.15 K, x1 = 0.3121	837.88	1143	1.22
323.15 K, x1 = 0.3576	844.05	1137	1.093
323.15 K, x1 = 0.4113	851.48	1131	0.97
323.15 K, x1 = 0.4632	858.73	1126	0.857
323.15 K, x1 = 0.5111	865.59	1123	0.765
323.15 K, x1 = 0.552	871.51	1121	0.689
323.15 K, x1 = 0.6008	878.65	1119	0.607
323.15 K, x1 = 0.6498	885.85	1117	0.568
323.15 K, x1 = 0.7108	894.96	1115	0.532
323.15 K, x1 = 0.7554	901.77	1114	0.535
323.15 K, x1 = 0.8112	910.41	1113	0.537
323.15 K, x1 = 0.8501	916.42	1112	0.54
323.15 K, x1 = 0.9002	924.3	1111	0.544
323.15 K, x1 = 0.9555	933.24	1110	0.548
